Measured values published in ChEMBL document CHEMBL1135773, “Purine and pyrimidine (P2) receptors as drug targets” (J Med Chem, 2002).

Legend:
[1] = target: T1, P2X purinoceptor 1 (Rattus norvegicus, UniProt P47824); assay: Dissociation constant of the compound at P2X purinoceptor 1 (P2X1) from rat vas deferens was reported
[2] = target: T1, P2X purinoceptor 1; assay: The compound was evaluated for antagonist activity against P2X purinoceptor 1 (P2X1) receptor from rat vas deferens; format: functional
[3] = target: P2Y purinoceptor 1 (Cavia porcellus); assay: The compound was evaluated for antagonistic activity at P2Y purinoceptor 1 (P2Y1) from guinea pig taenia coli
[4] = target: P2Y purinoceptor 1 (Homo sapiens, UniProt P47900); assay: Dissociation constant at P2Y purinoceptor 1 (P2Y1) from guinea pig taenia coli; parameters: species or system Cavia porcellus; conditions: target entry is the homologue from another species
Sequence of P2Y purinoceptor 1 (Homo sapiens, UniProt P47900) (P47900 whole entry): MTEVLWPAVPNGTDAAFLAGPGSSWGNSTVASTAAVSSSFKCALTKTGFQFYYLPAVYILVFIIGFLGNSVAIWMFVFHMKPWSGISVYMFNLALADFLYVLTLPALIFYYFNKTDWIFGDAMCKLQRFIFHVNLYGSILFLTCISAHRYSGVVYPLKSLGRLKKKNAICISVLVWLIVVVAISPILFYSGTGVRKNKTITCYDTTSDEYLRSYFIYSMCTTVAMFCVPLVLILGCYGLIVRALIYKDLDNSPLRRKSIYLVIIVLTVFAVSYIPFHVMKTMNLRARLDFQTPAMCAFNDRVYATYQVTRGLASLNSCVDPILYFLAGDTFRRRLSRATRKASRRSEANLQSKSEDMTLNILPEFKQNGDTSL

[5] = target: T2, P2X purinoceptor 1 (Rattus norvegicus, UniProt P47824); assay: The compound was evaluated for antagonist activity against P2X purinoceptor 1 (P2X1) from rat vas deferens; format: functional
T2 sequence (P47824 whole entry): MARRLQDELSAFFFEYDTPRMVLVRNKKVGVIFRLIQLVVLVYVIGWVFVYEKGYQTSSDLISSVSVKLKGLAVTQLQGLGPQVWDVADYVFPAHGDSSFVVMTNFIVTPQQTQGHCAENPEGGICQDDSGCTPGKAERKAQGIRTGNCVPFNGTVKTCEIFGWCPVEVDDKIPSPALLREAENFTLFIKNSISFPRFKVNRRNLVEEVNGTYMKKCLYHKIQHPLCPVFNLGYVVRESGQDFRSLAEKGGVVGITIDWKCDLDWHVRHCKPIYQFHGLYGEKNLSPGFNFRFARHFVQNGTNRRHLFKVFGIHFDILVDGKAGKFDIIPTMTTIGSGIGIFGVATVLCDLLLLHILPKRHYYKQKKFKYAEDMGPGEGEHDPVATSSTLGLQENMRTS

[6] = target: P2Y purinoceptor 1 (Meleagris gallopavo, UniProt P49652); assay: Evaluated for agonist activity against phospholipase C coupled P2Y purinoceptor 1 (P2Y1) of turkey erythrocytes; format: functional
Sequence of P2Y purinoceptor 1 (Meleagris gallopavo, UniProt P49652) (P49652 whole entry): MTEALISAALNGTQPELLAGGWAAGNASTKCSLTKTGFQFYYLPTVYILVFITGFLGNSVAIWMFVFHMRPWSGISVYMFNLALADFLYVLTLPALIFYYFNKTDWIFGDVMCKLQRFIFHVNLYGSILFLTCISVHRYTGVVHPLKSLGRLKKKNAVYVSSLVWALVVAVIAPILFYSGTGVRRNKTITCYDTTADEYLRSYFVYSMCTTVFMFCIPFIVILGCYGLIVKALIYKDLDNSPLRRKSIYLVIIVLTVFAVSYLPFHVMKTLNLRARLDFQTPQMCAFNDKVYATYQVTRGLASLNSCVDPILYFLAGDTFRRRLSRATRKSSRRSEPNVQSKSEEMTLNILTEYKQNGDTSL

[7] = target: T3, P2X purinoceptor 2 (Rattus norvegicus, UniProt P49653); assay: The compound was evaluated for antagonist activity against recombinant rat receptor P2X purinoceptor 2 (P2X2) at 10 uM, expressed in Xenopus oocytes; format: functional, cell-based, Oocyte
T3 sequence (P49653 whole entry): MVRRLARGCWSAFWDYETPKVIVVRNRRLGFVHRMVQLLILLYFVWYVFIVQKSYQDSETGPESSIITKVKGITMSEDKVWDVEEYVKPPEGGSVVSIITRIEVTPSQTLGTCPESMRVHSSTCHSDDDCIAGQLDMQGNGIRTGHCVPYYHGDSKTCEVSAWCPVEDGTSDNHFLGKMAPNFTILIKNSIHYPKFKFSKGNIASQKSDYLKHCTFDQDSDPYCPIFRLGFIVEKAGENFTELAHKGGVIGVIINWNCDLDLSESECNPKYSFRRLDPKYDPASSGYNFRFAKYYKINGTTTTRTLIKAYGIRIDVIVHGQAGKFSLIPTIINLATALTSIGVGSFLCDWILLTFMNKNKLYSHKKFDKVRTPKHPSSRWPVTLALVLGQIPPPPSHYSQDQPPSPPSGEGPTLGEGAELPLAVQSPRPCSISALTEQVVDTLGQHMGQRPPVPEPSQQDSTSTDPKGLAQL

[8] = target: P2Y purinoceptor 2 (Homo sapiens, UniProt P41231); assay: The compound was evaluated for antagonistic activity against P2Y purinoceptor 2 (P2Y2); format: functional
Sequence of P2Y purinoceptor 2 (P41231 whole entry): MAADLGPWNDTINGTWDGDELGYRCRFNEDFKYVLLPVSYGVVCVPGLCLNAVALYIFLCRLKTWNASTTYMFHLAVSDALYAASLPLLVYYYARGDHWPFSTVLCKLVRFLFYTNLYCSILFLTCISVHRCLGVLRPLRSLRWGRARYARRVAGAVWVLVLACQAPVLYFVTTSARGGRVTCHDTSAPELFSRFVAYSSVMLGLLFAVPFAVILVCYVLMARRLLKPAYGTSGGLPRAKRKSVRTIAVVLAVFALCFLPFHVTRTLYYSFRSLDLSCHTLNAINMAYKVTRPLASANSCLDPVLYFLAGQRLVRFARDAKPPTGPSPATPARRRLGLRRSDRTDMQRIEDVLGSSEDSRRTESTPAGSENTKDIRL

[9] = The compound was evaluated for antagonist activity against P2X purinoceptor; format: functional

## Cc1nc(/N=N/c2ccc(C(=O)O)c(Cl)c2)c(COP(=O)(O)O)c(C=O)c1O
[1]
  Kd: 1.6 µM
[2]
  IC50: 9.6 µM
[3]
  Kd: 2.9 µM

## C=CS(=O)(=O)c1cccc(Nc2cc(S(=O)(=O)O)c(N)c3c2C(=O)c2ccccc2C3=O)c1 [UNIBLUE A]
[4]
  Kd: > 100 µM
[5]
  IC50: 7.5 µM

## Cc1nc(/N=N/c2cc(S(=O)(=O)O)ccc2Cl)c(COP(=O)(O)O)c(C=O)c1O
[6]
  EC50: 0.0044 µM
[7]
  EC50: 0.0011 µM

## Cc1cc(-c2ccc(/N=N/c3c(S(=O)(=O)O)cc4cc(S(=O)(=O)O)cc(N)c4c3O)c(C)c2)ccc1/N=N/c1c(S(=O)(=O)O)cc2cc(S(=O)(=O)O)cc(N)c2c1O [TRYPAN BLUE]
[8]
  IC50: 171 µM
[9]
  IC50: 386 µM
